Measured values published in patent US4670461A, “Formaldehyde derivatives of mitindomide” (priority 1984, dated 1987).
In brackets after ≈: the same amount, converted by molar mass.

Assay: Water solubility
Assay type: physicochemical
Settings: for solubility: water, read-out: H2O Sol. % (g per 100 ml H2O)

SMILES	solubility [µg/mL]	solubility in water (freeze-dried powder after pH adjusted to 6.33 with sodium bicarbonate)	solubility in water (title compound, 2.4 g mixed with 150 ml of water)	solubility in water (freeze-dried solid after pH adjusted to 6.11 with sodium bicarbonate)
O=C1C2C3C=CC(C2C(=O)N1CN1CCSCC1)C1C2C(=O)N(CN4CCSCC4)C(=O)C2C31 (stereo not shown) [Example 6, 4,8-Ethenopyrrolo[3'4':3,4]cyclobut[1,2-f]isoindole-1,3,5,7(2H,6H)-tetrone,3a,3b,4,4a,7a,8,8a,8-octahydro-2,6-bis(thiomorpholinomethyl)]	1000 (≈ 1.99 mM)			
O=C1C2C3C=CC(C2C(=O)N1CN1CCOCC1)C1C2C(=O)N(CN4CCOCC4)C(=O)C2C31 (stereo not shown) [Example 5, 4,8-Ethenopyrro[3',4':3,4]cyclobut[1,2-f]isoindole-1,3,5,7(2H,6H)-tetrone,3a,3b,4,4a,7a,8,8a,8b-octahydro-2,6-bis(morpholinomethyl)]	1000 (≈ 2.13 mM)			
NCC(=O)OCN1C(=O)C2C3C=CC(C2C1=O)C1C2C(=O)N(COC(=O)CN)C(=O)C2C31 (stereo not shown) [Example 9, 4,8-Ethenopyrrolo[3',4':3,4]cyclobut[1,2-f]isoindole-1,3,5,7(2H,6H)-tetrone,3a,3b,4,4a,7a,8,8a,8b-octahydro-2-,6bis(2-aminoacetyloxymethyl)]	20000 (≈ 44.8 mM)			
CCN(CC)CN1C(=O)C2C3C=CC(C2C1=O)C1C2C(=O)N(CN(CC)CC)C(=O)C2C31 (stereo not shown) [Example 7, 4,8-Ethenopyrrolo[3',4':3,4]cyclobut[1,2-f]isoindole-1,3,5,7(2H,6H)-tetrone,3a,3b,4,4a,7a,8,8a,8b-octahydro-2,6-bis(N,N-diethylaminomethyl)]	1000 (≈ 2.26 mM)			

Now from value to compound:

solubility [µg/mL]	solubility in water (freeze-dried powder after pH adjusted to 6.33 with sodium bicarbonate)	solubility in water (title compound, 2.4 g mixed with 150 ml of water)	solubility in water (freeze-dried solid after pH adjusted to 6.11 with sodium bicarbonate)	SMILES
20000 (≈ 37.6 mM)	readily soluble in water	not soluble		O=C(O)CCC(=O)OCN1C(=O)C2C3C=CC(C2C1=O)C1C2C(=O)N(COC(=O)CCC(=O)O)C(=O)C2C31 (stereo not shown) [Example 10, 4,8-Ethenopyrrolo[3',4':3,4]cyclobut[1,2-f]isoindole-1,3,5,7(2H,6H)-tetrone,3a,3b,4,4a,7a,8,8a,8b-octahydro-2-,6-bis(succinyloxymethyl)]
50000 (≈ 99.1 mM)			soluble in water	CC(=O)OC(C(=O)O)N1C(=O)C2C3C=CC(C2C1=O)C1C2C(=O)N(C(OC(C)=O)C(=O)O)C(=O)C2C31 (stereo not shown) [Example 11]
8000 (≈ 24.1 mM)				O=C1C2C3C=CC(C2C(=O)N1CO)C1C2C(=O)N(CO)C(=O)C2C31 (stereo not shown) [Example 2, 4,8-Ethenopyrrolo[3',4':3,4]cyclobut[1,2-f]isoindole-1,3,5,7(2H,6H)-tetrone,3a,3b,4,4a,7a,8,8a,8b-octahydro-2-,6-bis(hydroxymethyl)-]
